Measurements taken from paper PMC7849011, “Defining the Antimalarial Activity of Cipargamin in Healthy Volunteers Experimentally Infected with Blood-Stage Plasmodium falciparum” (Antimicrobial Agents and Chemotherapy, 2021).
≈ marks a conversion by molar mass, not a printed value. Where “and” joins values, the source holds several entries; their conditions need not be identical. Identical values can stand only once. Like-named read-outs stand apart in the source and are kept apart here.

What was measured:
[1] = tested on: P. falciparum; test: Population PK/PD modelling (Emax model) and dose simulation; format: in vivo, Plasmodium falciparum
Description: Data preparation, exploration, model definition, model evaluation and simulations were performed in R (version 3.5.1) and the R package IQRtools (version 1.0.6; IntiQuan, Basel, Switzerland) within the software package MonolixSuite 2018R2 (Lixoft, Antony, France). The MIC and the minimum parasiticidal concentration that achieves 90% of maximum effect (MPC90) were derived from the PK/PD model. Simulations were performed to predict the minimum effective single dose, defined as the dose that clears 10^9 parasites/ml. Further detail on PK/PD modeling methods is presented in Text S1.
Pharmacokinetic/Pharmacodynamic modelling methods and results […]
The objectives of the PK/PD modelling anal ysis w ere:
1. To develop a population PK model of cipar gamin in healthy subjects inoculated with blood stage P. falciparum .
2. To char acterize the PK/PD relationship between cipargamin pharmacokinetics and parasite cl ear ance in h eal th subjects inoculated with blood stage P. falcipar um .
3. To determine the minimum inhibitory concent ration (M IC ) of cipargamin .
4. To establish the minimum effective cipar gamin single dose required to kill 10 9
Data preparation, exploration, model definition, model evaluation and simulations were performed in R (version 3.5.1) and the R package IQRtools (version 1.0.6, IntiQuan GmbH, Basel, Switzerland) withi n the software package MonolixSuite2018R2 (Li xoft, Anton y, Fran ce) which implemen ts stochastic approx imation ex pectation-maximisation (SAEM) algorithm for parameter estimation.
One-, two- and three-compartment with different absorption and elimination models were tested. Zero- and first-order absorption models wi th or without lag time were examined. Data below the lower limit of quantitation ( LLO Q; 0.001 µg/ m L) were treated using a left - censoring method. Between subject vari abilit y ( BSV) of the PK parameters was assumed to be normally distributed on log -scale. The random effects across the par ameters within an individual were modelled according to a multivari ate normal distribution (MVN). BS V w as […]
supported by the data.The residual unexplained variabilit y (RUV) was tested using a proportional or combined error models.
Population PK/PD modelling
A sequential PK/PD modelling approach was used in which the empirical Bayes estimates of individual PK parameters were us ed as r egression parameters for the PK/P D model. The observations below the limit of detection (LOD; 10 parasites/mL) were mo del led using a l eft-censoring method. In this anal ysis, the changes in parasitemia over time in the presen ce of antimalarial dru g are ass umed to be a result of the differen ce b etween p ar asite growth rate (k grow ) and the r ate at wh ich parasites are killed b y the drug (k k ill ) with a baseline parasitemia (P L base ) at time t 0 (time of inoculation). Diff erent structural PK/PD models were tested to assess the relationship of cipar gamin plasma concentration on the parasite ki lling rate. The E max model assumed a direct effect of cipargamin plasma concent rations on parasite killing.
The turnover model assumed an indirect effect of cipargamin plasma concentrations on parasite killing due to lag in the PD processes (i.e. the kinetics of dru g-receptor binding). The effect compartment mod el assumed an indirect ef fect of cipar gamin plasm a concentration on parasite killing due to biophase equilibration. This model can be interpreted as the dela y for the drug to reach the site of action in which the cip ar gamin concentrations i n the eff ect […]
compartment drives the d rug eff ect. The p arasite clear an ce model assumed that the observed parasites were a mixture of living and dead parasites and that the cipar gami n plasma […]
PD parameters wer e mod elled assuming a log-normal distribution with exception of ln-transformed b aseline par asite values (parasit emia at time of inoculation) w here a no rmal distribution was assumed. […]
were fixed to 0.2. […]

[2] = tested on: rodent malaria model; set-up: method as in PMID 20813948; settings: cited from earlier work
[3] = tested on: P. falciparum 3D7; test: Induced blood-stage malaria (IBSM) volunteer infection study: parasitemia by 18S rRNA qPCR; format: in vivo, Plasmodium falciparum; settings: for Log10PRR48 (95%CI) / Parasite Clearance Half-Life (95%CI): 10 mg
Description: A single cohort of eight subjects was inoculated intravenously with P. falciparum 3D7-infected human erythrocytes (approximately 1,800 viable parasites) as previously described ([24]). Parasite growth was monitored by collecting blood samples and performing quantitative PCR (qPCR) targeting the gene encoding P. falciparum 18S rRNA ([25]). […] The dose of cipargamin selected was predicted to be subtherapeutic based on preclinical modeling ([7]) and pharmacokinetic data obtained in previous clinical studies ([8]) and thus chosen to facilitate modeling to estimate the pharmacokinetic/pharmacodynamic relationship. To monitor total parasitemia, blood samples were collected for 18S rRNA qPCR before inoculation, on day 3, twice daily on days 4 to 6, pretreatment on day 7, and 4, 8, 12, 16, 24, 30, and 36 h posttreatment, twice daily from day 9 to day 11, and every 1 to 3 days until day 35. Blood samples for gametocytemia measurements were collected on day 11, every 1 to 3 days between day 15 and day 29, and on day 35. […] Analyses were performed in R version 3.3.0. The PRR and parasite clearance half-life were estimated using the slope of the optimal fit for the log-linear relationship of the parasitemia decay as described previously ([27]).

[4] = set-up: method as in PMID 25114127; settings: cited from earlier work
[5] = tested on: P. falciparum; settings: cited from earlier work
[6] = plasma concentration, PK/PD model, 10 mg cohort
[7] = 10 mg single oral dose, 8 healthy subjects, IBSM

SMILES: C[C@H]1Cc2c([nH]c3cc(Cl)c(F)cc23)[C@@]2(N1)C(=O)Nc1ccc(Cl)cc12 [cipargamin]
- PRR48 actual, median (95% CI) ([1]; PK/PD model, 10 mg): 2.59 (1.89 – 3.32) log10 unit
- Time above MIC, median (95% CI) ([1]; PK/PD model, 10 mg): 1.96 (1.59 –2.44) days
- Time above MPC90, median (95% CI) ([1]; PK/PD model, 10 mg): 0.89 (0.63–1.26) days
- Emax, maximum parasite killing rate ([1]; final PK/PD Emax model, Hill coefficient fixed to 5): 0.23 h⁻¹
- MIC, median (95% CI) [1, 6]: 11.6 (9.9 – 13.3) ng/ml and 11.6 ng/ml
- MPC90, minimum parasiticidal concentration that achieves 90% of maximum effect, median (95% CI) [1, 6]: 23.5 (19.9 – 27.4) ng/ml and 23.5 ng/ml
- minimum effective single dose predicted to clear 10^9 parasites/ml ([1]; simulation in patients with malaria, 500 patients per dose, up to day 28): 95 mg
- cure in rodent malaria model [2]: single-dose cure was demonstrated
- time to observed reduction in parasitemia ([3]; 10 mg single oral dose): ≤ 24 h
- log10 parasite reduction ratio over 48 h postdose (PRR48), cohort-specific [3, 7]: 3.63
- parasite clearance half-life, cohort-specific [3, 7]: 3.99 h
- time of parasite regrowth after dosing ([3]; 10 mg single oral dose, all 8 subjects): 3 to 8 days
- Log10PRR48 (95%CI) ([3]; subject 1): 4.22 (3.15, 5.29)
- Parasite Clearance Half-Life (95%CI) ([3]; subject 1): 3.42 (2.73, 4.59) h
- Log10PRR48 (95%CI) ([3]; subject 2): 5.84 (4.79, 6.90)
- Parasite Clearance Half-Life (95%CI) ([3]; subject 2): 2.47 (2.10, 3.02) h
- Log10PRR48 (95%CI) ([3]; subject 3): 4.09 (3.45, 4.73)
- Parasite Clearance Half-Life (95%CI) ([3]; subject 3): 3.53 (3.05, 4.19) h
- Log10PRR48 (95%CI) ([3]; subject 4): 2.18 (1.62, 2.73)
- Parasite Clearance Half-Life (95%CI) ([3]; subject 4): 6.64 (5.30, 8.90) h
- Log10PRR48 (95%CI) ([3]; subject 5): 4.23 (3.48, 4.98)
- Parasite Clearance Half-Life (95%CI) ([3]; subject 5): 3.42 (2.90, 4.15) h
- Log10PRR48 (95%CI) ([3]; subject 6): 1.28 (0.85, 1.71)
- Parasite Clearance Half-Life (95%CI) ([3]; subject 6): 11.39 (8.47, 17.37) h
- Log10PRR48 (95%CI) ([3]; subject 7): 4.12 (3.22, 5.03)
- Parasite Clearance Half-Life (95%CI) ([3]; subject 7): 3.51 (2.87, 4.49) h
- Log10PRR48 (95%CI) ([3]; subject 8): 4.63 (4.34, 4.92)
- Parasite Clearance Half-Life (95%CI) ([3]; subject 8): 3.12 (2.93, 3.33) h
- AUC0–∞ ([4]; 10 mg, healthy subjects, first-in-human study): 1860 ng·h/mL
- LFT abnormalities ([4]; 72 healthy subjects, single doses up to 300 mg or up to 150 mg daily for 3 days): only one subject displayed mild LFT abnormalities
- tolerability in humans ([4]; single dose up to 300 mg or up to 150 mg daily for 3 days): tolerated
- parasite clearance half-life ([5]; 10 mg single dose, patients with P. falciparum malaria): 4.35 h
- parasite clearance half-life ([5]; 30 mg per day for 3 days, P. falciparum malaria patients): 0.90 h
- parasite clearance half-life ([5]; 30 mg single dose (highest tested), phase 2a): 1.47 h
- clearance of parasitemia in patients ([5]; 3-day regimen of 30 mg daily, patients infected with P. falciparum or Plasmodium vivax, Thailand): demonstrated to clear parasitemia
- MIC estimated in patients ([5]; patients with P. falciparum malaria, doses 10, 15, 20 and 30 mg): 0.1 ng/mL (≈ 0.256 nM)
